Results on eleven compounds are retold here after PubChem BioAssay AID236 (DTP/NCI, 2004).

Each structure is given as a SMILES string. “And” between values parts separate entries of the source, which are not always exact repeats. Equal values may be shown once. Inconclusive results and toxic doses are left out.

In the assay the test system is AK4 lymphoid leukemia ip, C3AKF1 mice, survival. Kind of assay: NCI In Vivo Anticancer Drug Screen. Data for tumor model AK4 Lymphoid Leukemia (intraperitoneal) in C3AKF1 (CHKRF1) mice. As to conditions: endpoint: median survival time, higher = longer survival. As to the method:
The antitumor activity of compounds was measured in mice bearing transplantable tumors. Survival or tumor size were measured and the results are expressed as the measurement made in the treated group (T) divided by the measurement made in the vehicle treated control group (C). The tumor model used in this assay is AK4 Lymphoid Leukemia (intraperitoneal) in C3AKF1 (CHKRF1) mice

Setting [1] is: dose: 32.0 mg/kg/injection, schedule: Q01DX010 (ip), vehicle: saline.
The mark [2] stands for this setting: dose: 64.0 mg/kg/injection, schedule: Q01DX010 (ip), vehicle: saline.
[3] abbreviates: dose: 128.0 mg/kg/injection, schedule: Q01DX010 (ip), vehicle: saline.
Where [4] appears, read: dose: 1.0 mg/kg/injection, schedule: Q01DX010 (ip), vehicle: saline.
Where [5] appears, read: dose: 2.0 mg/kg/injection, schedule: Q01DX010 (ip), vehicle: saline.
[6] abbreviates: dose: 4.0 mg/kg/injection, schedule: Q01DX010 (ip), vehicle: saline.

As to `O=c1cn[nH]c(=O)[nH]1`, the T/C (dose: 32.0 mg/kg/injection, schedule: Q01DX006 (iv), vehicle: saline) is 88 % of control; the T/C under setting [1] was 88 % of control; the T/C (dose: 32.0 mg/kg/injection, schedule: Q01DX010 (sc), vehicle: saline) was 88 % of control; the T/C (dose: 32.0 mg/kg/injection, schedule: Q02DX005 (im), vehicle: saline) was 94 % of control; the T/C (dose: 64.0 mg/kg/injection, schedule: Q01DX006 (iv), vehicle: saline) was 100 % of control; the T/C under setting [2] was 88 % of control. For the same compound, the T/C was 88 % of control (dose: 64.0 mg/kg/injection, schedule: Q01DX010 (sc), vehicle: saline); 105 % of control (dose: 64.0 mg/kg/injection, schedule: Q02DX005 (im), vehicle: saline); 88 % of control (dose: 100.0 mg/kg/injection, schedule: Q03DX Z (ip), vehicle: saline); 88 % of control and 94 % of control (dose: 125.0 mg/kg/injection, schedule: Q01DX001 (ip), vehicle: saline); 100 % of control (dose: 125.0 mg/kg/injection, schedule: Q01DX010 (oral), vehicle: saline); 111 % of control (dose: 125.0 mg/kg/injection, schedule: Q07DX Z (ip), vehicle: saline). Besides, the T/C (dose: 128.0 mg/kg/injection, schedule: Q01DX006 (iv), vehicle: saline) was 88 % of control; the T/C under setting [3] is 88 % of control; the T/C (dose: 128.0 mg/kg/injection, schedule: Q01DX010 (sc), vehicle: saline) is 88 % of control; the T/C (dose: 128.0 mg/kg/injection, schedule: Q02DX005 (im), vehicle: saline) was 122 % of control; the T/C (dose: 200.0 mg/kg/injection, schedule: Q03DX Z (ip), vehicle: saline) is 100 % of control; the T/C (dose: 250.0 mg/kg/injection, schedule: Q01DX001 (ip), vehicle: saline) is 94 % of control and 100 % of control. Besides, the T/C is, setting by setting: (dose: 250.0 mg/kg/injection, schedule: Q01DX010 (oral), vehicle: saline) 94 % of control; (dose: 250.0 mg/kg/injection, schedule: Q07DX Z (ip), vehicle: saline) 88 % of control; (dose: 256.0 mg/kg/injection, schedule: Q01DX006 (iv), vehicle: saline) 105 % of control; (dose: 256.0 mg/kg/injection, schedule: Q01DX010 (ip), vehicle: saline) 100 % of control; (dose: 256.0 mg/kg/injection, schedule: Q01DX010 (sc), vehicle: saline) 105 % of control; (dose: 256.0 mg/kg/injection, schedule: Q02DX005 (im), vehicle: saline) 88 % of control. For the same compound, the T/C (dose: 400.0 mg/kg/injection, schedule: Q03DX Z (ip), vehicle: saline) was 94 % of control; the T/C (dose: 500.0 mg/kg/injection, schedule: Q01DX001 (ip), vehicle: saline) was 94 % of control and 105 % of control; the T/C (dose: 500.0 mg/kg/injection, schedule: Q01DX010 (oral), vehicle: saline) is 111 % of control; the T/C (dose: 500.0 mg/kg/injection, schedule: Q07DX Z (ip), vehicle: saline) was 88 % of control; the T/C (dose: 800.0 mg/kg/injection, schedule: Q03DX Z (ip), vehicle: saline) was 94 % of control; the T/C (dose: 1000.0 mg/kg/injection, schedule: Q01DX001 (ip), vehicle: saline) was 100 % of control and 105 % of control. Besides, the T/C is 94 % of control (dose: 1000.0 mg/kg/injection, schedule: Q01DX010 (oral), vehicle: saline) and 100 % of control (dose: 1000.0 mg/kg/injection, schedule: Q07DX Z (ip), vehicle: saline).
Take `CN(N=O)C(N)=O`: the T/C is, setting by setting: (dose: 10.0 mg/kg/injection, schedule: Q01DX010 (ip), vehicle: saline) 162 % of control; (dose: 20.0 mg/kg/injection, schedule: Q01DX010 (ip), vehicle: saline) 225 % of control; (dose: 40.0 mg/kg/injection, schedule: Q01DX010 (ip), vehicle: saline) 112 % of control.
With `Clc1ncnc2nc[nH]c12`, the T/C reads like this: (dose: 7.5 mg/kg/injection, schedule: Q01DX010 (ip), vehicle: saline) 100 % of control and 87 % of control; (dose: 15.0 mg/kg/injection, schedule: Q01DX010 (ip), vehicle: saline) 100 % of control and 114 % of control; (dose: 30.0 mg/kg/injection, schedule: Q01DX010 (ip), vehicle: saline) 100 % of control and 87 % of control; (dose: 60.0 mg/kg/injection, schedule: Q01DX010 (ip), vehicle: saline) 87 % of control and 100 % of control.
On to `CCN(CC)c1ccc2cc3ccc(=[N+](CC)CC)cc-3oc2c1`, for which the T/C under setting [4] was 100 % of control; the T/C under setting [5] is 100 % of control; the T/C under setting [6] was 100 % of control; the T/C (dose: 8.0 mg/kg/injection, schedule: Q01DX010 (ip), vehicle: saline) was 100 % of control.
Consider `CCCCn1cnc2c(=S)nc[nH]c21`, for which the T/C was 100 % of control (dose: 16.0 mg/kg/injection, schedule: Q01DX010 (ip), vehicle: saline); 90 % of control and 122 % of control under setting [1]; 90 % of control and 111 % of control under setting [2]; 94 % of control and 100 % of control under setting [3].
For `OC(CBr)C(O)C(O)C(O)CBr` (stereo unspecified), the T/C by setting is: (dose: 50.0 mg/kg/injection, schedule: Q01DX010 (ip), vehicle: saline) 100 % of control and 87 % of control; (dose: 100.0 mg/kg/injection, schedule: Q01DX010 (ip), vehicle: saline) 93 % of control and 87 % of control; (dose: 200.0 mg/kg/injection, schedule: Q01DX010 (ip), vehicle: saline) 93 % of control and 100 % of control; (dose: 400.0 mg/kg/injection, schedule: Q01DX010 (ip), vehicle: saline) 100 % of control.
Turning to `O=c1c(O)cccc2cc(O)c(O)c(O)c12`, where the note is “dose: 25.0 mg/kg/injection, schedule: Q01DX010 (ip), vehicle: saline”, the T/C was 94 % of control.
On to `Nc1nc(F)nc2c1ncn2C1OC(CO)C(O)C1O` (stereo unspecified), for which the T/C runs as follows: (dose: 0.5 mg/kg/injection, schedule: Q01DX010 (ip), vehicle: saline) 105 % of control; under setting [4], 100 % of control; under setting [5], 100 % of control and 111 % of control; under setting [6], 100 % of control and 105 % of control.
On to `C[C@]12C=CC(=O)C=C1CC[C@@H]1[C@@H]2C(=O)C[C@@]2(C)[C@H]1CC[C@]2(O)C(=O)CO`, for which the T/C was 100 % of control (dose: 6.25 mg/kg/injection, schedule: Q01DX010 (sc), vehicle: steriod suspending solution); 100 % of control and 87 % of control (dose: 12.5 mg/kg/injection, schedule: Q01DX010 (sc), vehicle: steriod suspending solution); 93 % of control (dose: 12.5 mg/kg/injection, schedule: Q01DX Z (sc), vehicle: steriod suspending solution); 100 % of control and 87 % of control (dose: 25.0 mg/kg/injection, schedule: Q01DX010 (sc), vehicle: steriod suspending solution); 93 % of control (dose: 25.0 mg/kg/injection, schedule: Q01DX Z (sc), vehicle: steriod suspending solution); 90 % of control and 100 % of control (2×) (dose: 50.0 mg/kg/injection, schedule: Q01DX010 (sc), vehicle: steriod suspending solution). The T/C reads like this: (dose: 50.0 mg/kg/injection, schedule: Q01DX Z (sc), vehicle: steriod suspending solution) 96 % of control and 100 % of control; (dose: 100.0 mg/kg/injection, schedule: Q01DX010 (sc), vehicle: steriod suspending solution) 90 % of control and 118 % of control; (dose: 100.0 mg/kg/injection, schedule: Q01DX Z (sc), vehicle: steriod suspending solution) 96 % of control; (dose: 200.0 mg/kg/injection, schedule: Q01DX010 (sc), vehicle: steriod suspending solution) 105 % of control and 118 % of control; (dose: 200.0 mg/kg/injection, schedule: Q01DX Z (sc), vehicle: steriod suspending solution) 96 % of control and 120 % of control.
On to `[I][Hg][CH2]C1COC([CH2][Hg][I])CO1` (stereo unspecified), for which the T/C is 106 % of control (dose: 0.78 mg/kg/injection, schedule: Q01DX010 (ip), vehicle: saline); 100 % of control (dose: 1.56 mg/kg/injection, schedule: Q01DX010 (ip), vehicle: saline); 100 % of control (dose: 3.13 mg/kg/injection, schedule: Q01DX010 (ip), vehicle: saline); 100 % of control (dose: 6.25 mg/kg/injection, schedule: Q01DX010 (ip), vehicle: saline); 88 % of control (dose: 12.5 mg/kg/injection, schedule: Q01DX010 (ip), vehicle: saline).
As to `Nc1nc(=S)c2[nH]cnc2[nH]1`, the T/C was 100 % of control and 114 % of control (dose: 1.25 mg/kg/injection, schedule: Q01DX010 (ip), vehicle: other); 93 % of control and 114 % of control (dose: 2.5 mg/kg/injection, schedule: Q01DX010 (ip), vehicle: other); 112 % of control (dose: 5.0 mg/kg/injection, schedule: Q01DX010 (ip), vehicle: other); 106 % of control (dose: 10.0 mg/kg/injection, schedule: Q01DX010 (ip), vehicle: other).
